Test results: patent US20060069123A1, “Substituted dipiperidine CCR2 antagonists” (priority 2004, published 2006)
Read-outs that look alike come from different tables or passages of the source.

Assays:
THP-1 cells [1] = test: MCP-1 Induced Chemotaxis in THP-1 Cells; format: cell-based; conditions: Homo sapiens; THP-1 cells, MCP-1 0.01 μg/mL, 3 hours; read-out: Inhibition of MCP-1 Induced Chemotaxis IC50
CCR2 = molecular target: T1, CCR2 (Homo sapiens, UniProt P41597)
T1 sequence (P41597 1-360 isoform P41597-2): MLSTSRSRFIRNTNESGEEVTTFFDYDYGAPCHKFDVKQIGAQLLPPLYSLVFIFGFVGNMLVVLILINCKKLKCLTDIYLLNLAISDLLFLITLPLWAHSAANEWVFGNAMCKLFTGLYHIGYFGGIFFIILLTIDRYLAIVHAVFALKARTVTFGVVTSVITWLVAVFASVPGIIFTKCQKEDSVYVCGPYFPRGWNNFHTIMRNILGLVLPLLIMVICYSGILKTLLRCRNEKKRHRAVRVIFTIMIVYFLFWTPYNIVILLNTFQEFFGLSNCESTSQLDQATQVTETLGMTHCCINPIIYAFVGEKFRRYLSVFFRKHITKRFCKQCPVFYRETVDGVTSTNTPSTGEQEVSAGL

THP-1 cells [2] = conditions: Homo sapiens, THP-1, read-out: Inhibition of MCP-1 Induced Calcium Ion Influx IC50

Compound	IC50 (THP-1 cells [1]) [nM]	IC50 (CCR2) [nM]	IC50 (THP-1 cells [2]) [nM]
COc1ccc(C2CCN(C(CO)C3CCN(C(=O)/C=C/c4cc(F)cc(F)c4)CC3)CC2)cc1 (stereo not drawn) [Cpd 137, (2E)-3-(3,5-difluoro-phenyl)-1-(4-{2-hydroxy-1-[4-(4-methoxy-phenyl)-piperidin-1-yl]-ethyl}-piperidin-1-yl)-propenone]	80	30	210
COc1ccc(C2CCN(C(CO)C3CCN(C(=O)/C=C/c4ccc(F)c(F)c4)CC3)CC2)cc1 (stereo not drawn) [Cpd 138, (2E)-3-(3,4-difluoro-phenyl)-1-(4-{2-hydroxy-1-[4-(4-methoxy-phenyl)-piperidin-1-yl]-ethyl}-piperidin-1-yl)-propenone]	217	172	1290
COc1ccc(C2CCN(C(CO)C3CCN(C(=O)/C=C/c4ccc(Cl)c(Cl)c4)CC3)CC2)cc1 (stereo not drawn) [Cpd 139, (2E)-3-(3,4-dichloro-phenyl)-1-(4-{2-hydroxy-1-[4-(4-methoxy-phenyl)-piperidin-1-yl]-ethyl}-piperidin-1-yl)-propenone]	50	20	40
COc1ccc(C2CCN(C(CO)C3CCN(C(=O)Nc4ccc(F)c(F)c4)CC3)CC2)cc1 (stereo not drawn) [Cpd 141, 4-{2-hydroxy-1-[4-(4-methoxy-phenyl)-piperidin-1-yl]-ethyl}-piperidine-1-carboxylic acid (3,4-difluoro-phenyl)-amide]	760	340	6900
O=C(O)C(C1CCN(C(=O)Nc2ccc(SC(F)(F)F)cc2)CC1)N1CCC(c2c[nH]c3ccccc23)CC1 (stereo not drawn) [Cpd 142, [4-(1H-indol-3-yl)-piperidin-1-yl]-[1-(4-trifluoromethylsulfanyl-phenylcarbamoyl)-piperidin-4-yl]-acetic acid]	60	5	30
CSc1cccc(NC(=O)N2CCC(C(C(=O)O)N3CCC(c4c[nH]c5ccccc45)CC3)CC2)c1 (stereo not drawn) [Cpd 144, [4-(1H-indol-3-yl)-piperidin-1-yl]-[1-(3-methylsulfanyl-phenylcarbamoyl)-piperidin-4-yl]-acetic acid]	500	50	1300
COC(=O)c1ccc2[nH]cc(C3CCN(C(C(=O)O)C4CCN(C(=O)/C=C/c5cc(F)c(F)c(F)c5)CC4)CC3)c2c1 (stereo not drawn) [Cpd 146, 3-[1-(carboxy-{1-[(2E)-3-(3,4,5-trifluoro-phenyl)-acryloyl]-piperidin-4-yl}-methyl)-piperidin-4-yl]-1H-indole-5-carboxylic acid methyl ester]	53	7	50
O=C(O)c1ccc2[nH]cc(C3CCN(C(C(=O)O)C4CCN(C(=O)/C=C/c5cc(F)c(F)c(F)c5)CC4)CC3)c2c1 (stereo not drawn) [Cpd 147, 3-[1-(carboxy-{1-[(2E)-3-(3,4,5-trifluoro-phenyl)-acryloyl]-piperidin-4-yl}-methyl)-piperidin-4-yl]-1H-indole-5-carboxylic acid]	40	150	600
O=C(/C=C/c1cc(F)c(F)c(F)c1)N1CCC(C(CO)N2CCC(c3c[nH]c4ncccc34)CC2)CC1 (stereo not drawn) [Cpd 153, (2E)-1-(4-{2-hydroxy-1-[4-(1H-pyrrolo[2,3-b]pyridin-3-yl)-piperidin-1-yl]-ethyl}-piperidin-1-yl)-3-(3,4,5-trifluoro-phenyl)-propenone]	9	3	7
O=C(c1cc2ccccc2o1)N1CCC(C(CO)N2CCC(c3c[nH]c4ccccc34)CC2)CC1 (stereo not drawn) [Cpd 154, benzofuran-2-yl-(4-{2-hydroxy-1-[4-(1H-indol-3-yl)-piperidin-1-yl]-ethyl}-piperidin-1-yl)-methanone]	160	270	4800
O=C(/C=C/c1ccc(Cl)c(Cl)c1)N1CCC(C(CO)N2CCC(c3cc[nH]n3)CC2)CC1 (stereo not drawn) [Cpd 155, (2E)-3-(3,4-dichloro-phenyl)-1-(4-{2-hydroxy-1-[4-(1H-pyrazol-3-yl)-piperidin-1-yl]-ethyl}-piperidin-1-yl)-propenone]	130	207	940
